According to patent publication US9296697B2, “Hetaryl-substituted guanidine compounds and use thereof as binding partners for 5-HT5-receptors” (Abbott Laboratories, priority 2005, dated 2016):

Molecular target: T1, h5-HT5A receptor (Homo sapiens, UniProt P47898)
T1 construct: expressed in transfected cells; membranes used
Test: h5-HT5A [3H]5-CT binding assay
Conditions: affinity for 5-HT5A; membranes of HEK293 cells expressing the h5-HT5A receptor gene, 2.5 nM [3H]5-CT
Description: h5-HT5A [^3H]5-CT Binding Assay
Membranes of HEK293 cells which permanently express the h5-HT5A receptor gene were incubated in 100 mM tris-HCl buffer (pH 7.7) containing 1 mM EDTA, in the presence of 2.5 nM [^3H]5-CT (total volume 600 μL). The total binding is defined as the binding that is observed when the membranes are incubated in the presence of only the radioligand. The inhibition induced by the compound is determined by incubation of cell membranes in the presence of the radioligand and various concentrations of the compound of interest. Nonspecific binding is defined as the [^3H]5-CT binding obtained by incubation of the membranes, the same as for the total binding, but in the presence of 10 μM methiothepine. Following incubation for 75 min at 30° C., the membrane suspension was filtered through a GF/B-Filter coated with 0.03% PEI, using a Skatron® harvesting system. The residual radioactivity in the filter was quantified by liquid scintillation counting.
Various concentrations of the test substances were used in both assays, and the Ki or IC50 values were determined.

T1 sequence (P47898 whole entry): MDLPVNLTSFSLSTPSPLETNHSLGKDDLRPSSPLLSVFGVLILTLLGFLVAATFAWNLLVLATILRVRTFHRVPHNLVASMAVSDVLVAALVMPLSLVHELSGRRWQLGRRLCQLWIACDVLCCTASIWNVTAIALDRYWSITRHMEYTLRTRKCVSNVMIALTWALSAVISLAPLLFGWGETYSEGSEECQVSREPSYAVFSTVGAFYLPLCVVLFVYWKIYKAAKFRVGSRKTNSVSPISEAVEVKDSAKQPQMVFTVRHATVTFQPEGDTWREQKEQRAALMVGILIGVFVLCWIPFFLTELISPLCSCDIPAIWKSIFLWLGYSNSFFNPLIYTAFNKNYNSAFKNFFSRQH

## COc1cccc(F)c1CNC(=N)Nc1cccc(Br)n1 [Example 72, N-(6-Bromopyridin-2-yl)-N′-(2-fluoro-6-methoxybenzyl)guanidine]
  Ki: < 0.1 µM

## N=C(NCc1ccccc1OC(F)(F)F)Nc1cccc(Br)n1 [Example 73, N-(6-Bromopyridin-2-yl)-N′-[2-(trifluoromethoxy)benzyl]guanidine]
  Ki: < 0.1 µM

## CC(C)Oc1ccccc1CNC(=N)Nc1cccc(Br)n1 [Example 74, N-(6-Bromopyridin-2-yl)-N′-(2-isopropoxybenzyl)guanidine]
  Ki: < 0.1 µM

## CCOc1ccccc1CNC(=N)Nc1cccc(Br)n1 [Example 75, N-(6-Bromopyridin-2-yl)-N′-(2-ethoxybenzyl)guanidine acetate]
  Ki: < 0.1 µM

## COc1cccc(C)c1CNC(=N)Nc1cccc(C#N)n1 [Example 76, N-(2-Methoxy-6-methylbenzyl)-N′-(6-cyanopyridin-2-yl)guanidine acetate]
  Ki: < 0.1 µM

## COc1cccc(F)c1CNC(=N)Nc1cccc(C#N)n1 [Example 77, N-(6-Cyanopyridin-2-yl)-N′-(2-fluoro-6-methoxybenzyl)guanidine acetate]
  Ki: < 0.1 µM

## COc1cccc(Cl)c1CNC(=N)Nc1cccc(C#N)n1 [Example 78, N-(2-Chloro-6-methoxybenzyl)-N′-(6-cyanopyridin-2-yl)guanidine acetate]
  Ki: < 0.1 µM

## N#Cc1cccc(NC(=N)NCc2ccccc2OC(F)(F)F)n1 [Example 79, N-(6-Cyanopyridin-2-yl)-N′-[2-(trifluoromethoxy)benzyl]guanidine acetate]
  Ki: < 0.1 µM

## CC(C)Oc1ccccc1CNC(=N)Nc1cccc(C#N)n1 [Example 80, N-(6-Cyanopyridin-2-yl)-N′-(2-isopropoxybenzyl)guanidine acetate]
  Ki: < 0.1 µM

## CCOc1ccccc1CNC(=N)Nc1cccc(C#N)n1 [Example 81, N-(6-Cyanopyridin-2-yl)-N′-(2-ethoxybenzyl)guanidine acetate]
  Ki: < 0.1 µM

## N#Cc1cccc(NC(=N)NCc2c(Cl)cccc2Oc2ccccc2)n1 [Example 82, N-(2-Chloro-6-phenoxybenzyl)-N′-(6-cyanopyridin-2-yl)guanidine acetate]
  Ki: < 0.1 µM

## COc1cccc(OC)c1CNC(=N)Nc1ccc(-c2ccccc2)cn1 [Example 83, N-(2,6-Dimethoxybenzyl)-N′-(5-phenylpyridin-2-yl) guanidine acetate]
  Ki: < 0.1 µM

## COc1cccc(OC)c1CNC(=N)Nc1ccc(-c2ccc(F)cc2)cn1 [Example 84, N-(2,6-Dimethoxybenzyl)-N′-[5-(4-fluorophenyl)pyridin-2-yl]guanidine acetate]
  Ki: < 0.1 µM

## COc1cccc(OC)c1CNC(=N)Nc1ccc(C#N)cn1 [Example 85, N-(5-Cyanopyridin-2-yl)-N′-(2,6-dimethoxybenzyl)guanidine acetate]
  Ki: < 0.1 µM

## COc1ccccc1CNC(=N)Nc1ccc(-c2ccccc2)cn1 [Example 86, N-(2-Methoxybenzyl)-N′-(5-phenylpyridin-2-yl)guanidine]
  Ki: < 0.1 µM

## COc1ccccc1CNC(=N)Nc1ccc(-c2cccs2)cn1 [Example 87, N-(2-Methoxybenzyl)-N′-[5-(2-thienyl)pyridin-2-yl]guanidine]
  Ki: < 0.1 µM

## COc1ccccc1CNC(=N)Nc1ccc(-c2ccc(F)cc2)cn1 [Example 88, N-[5-(4-Fluorophenyl)pyridin-2-yl]-N′-(2-methoxybenzyl)guanidine acetate]
  Ki: < 0.1 µM

## COc1ccccc1CNC(=N)Nc1ccc(-c2ccc(C(F)(F)F)cc2)cn1 [Example 89, N-(2-Methoxybenzyl)-N′-{5-[4-(trifluoromethyl)phenyl]pyridin-2-yl}guanidine acetate]
  Ki: < 0.3 µM

## COc1ccccc1CNC(=N)Nc1ccc(C#N)cn1 [Example 90, N-(5-Cyanopyridin-2-yl)-N′-(2-methoxybenzyl)guanidine]
  Ki: < 0.1 µM

## COc1cccc(Cl)c1CNC(=N)Nc1ccc(I)cn1 [Example 91, N-(2-Chloro-6-methoxybenzyl)-N′-(5-iodopyridin-2-yl)guanidine acetate]
  Ki: < 0.1 µM

## COc1cccc(F)c1CNC(=N)Nc1ccc(I)cn1 [Example 92, N-(2-Fluoro-6-methoxybenzyl)-N′-(5-iodopyridin-2-yl)guanidine acetate]
  Ki: < 0.1 µM

## COc1cccc(C)c1CNC(=N)Nc1ccc(I)cn1 [Example 93, N-(5-Iodopyridin-2-yl)-N′-(2-methoxy-6-methylbenzyl)guanidine acetate]
  Ki: < 0.1 µM

## N=C(NCc1ccccc1Cl)Nc1ccc(I)cn1 [Example 94, N-(2-Chlorobenzyl)-N′-(5-iodopyridin-2-yl)guanidine acetate]
  Ki: < 0.3 µM

## COc1cccc(Cl)c1CNC(=N)Nc1ccc(C#N)cn1 [Example 95, N-(2-Chloro-6-methoxybenzyl)-N′-(5-cyanopyridin-2-yl)guanidine acetate]
  Ki: < 0.1 µM

## COc1cccc(F)c1CNC(=N)Nc1ccc(C#N)cn1 [Example 96, N-(5-Cyanopyridin-2-yl)-N′-(2-fluoro-6-methoxybenzyl)guanidine acetate]
  Ki: < 0.1 µM

## COc1cccc(C)c1CNC(=N)Nc1ccc(C#N)cn1 [Example 97, N-(5-Cyanopyridin-2-yl)-N′-(2-methoxy-6-methylbenzyl)guanidine acetate]
  Ki: < 0.1 µM

## N#Cc1ccc(NC(=N)NCc2ccccc2Cl)nc1 [Example 98, N-(2-Chlorobenzyl)-N′-(5-cyanopyridin-2-yl)guanidine acetate]
  Ki: < 0.3 µM
